Our source for the IC50 and melting point values is article PMC7018746, “An efficient and targeted synthetic approach towards new highly substituted 6-amino-pyrazolo[1,5-a]pyrimidines with α-glucosidase inhibitory activity” (Scientific Reports, 2020).

Each structure is given as a SMILES string. Where two headings read alike, the source gives them in different places.

Data set [1] addresses T1, α-glucosidase (Saccharomyces cerevisiae, EC.3.2.1.20) (Saccharomyces cerevisiae, UniProt P53341).
T1 construct: purchased Sigma-Aldrich
The data set can be described thus: biochemical. The conditions noted are these: mean ± SD, at least three experiments, read-out: IC50 (µM), in vitro α-glucosidase inhibitory activity. The data set is classed as biochemical. The method, then: α-Glucosidase enzyme (EC3.2.1.20, Saccharomyces cerevisiae, 20 U/mg) and substrate (p-nitrophenyl glucopyranoside) were purchased from Sigma-Aldrich. […] Finally, the change in absorbance was measured at 405 nm by using spectrophotometer (Gen5, Power wave xs2, BioTek, America). DMSO (10% final concentration) and acarbose were used respectively as control and standard drug. The percentage of enzyme inhibitionwas calculated and IC50 values were obtained from non-linear regression curve using the Logit method.

T1 sequence (P53341 whole entry): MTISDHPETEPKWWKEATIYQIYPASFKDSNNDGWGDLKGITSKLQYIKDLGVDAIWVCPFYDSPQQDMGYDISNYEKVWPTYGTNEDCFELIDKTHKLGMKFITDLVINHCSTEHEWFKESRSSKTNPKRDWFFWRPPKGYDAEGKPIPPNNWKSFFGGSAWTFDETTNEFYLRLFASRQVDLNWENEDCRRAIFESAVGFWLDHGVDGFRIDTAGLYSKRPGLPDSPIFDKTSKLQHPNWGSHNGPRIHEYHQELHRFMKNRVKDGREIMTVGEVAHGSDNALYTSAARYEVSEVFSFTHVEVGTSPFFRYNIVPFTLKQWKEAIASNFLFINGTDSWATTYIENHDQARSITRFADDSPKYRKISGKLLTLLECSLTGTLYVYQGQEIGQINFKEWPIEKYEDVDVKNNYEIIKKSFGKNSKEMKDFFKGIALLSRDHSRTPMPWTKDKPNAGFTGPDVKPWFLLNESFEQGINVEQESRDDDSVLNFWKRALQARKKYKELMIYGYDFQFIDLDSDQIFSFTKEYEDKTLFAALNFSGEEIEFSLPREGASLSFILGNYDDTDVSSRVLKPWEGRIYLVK

Broadly, the IC50 is the concentration at which inhibition is half-maximal. In general, melting point refers to the temperature of the solid-liquid transition. As to `Nc1c(-c2ccccc2)nc2c(C(=O)Nc3ccccc3)c(Nc3ccccc3)nn2c1-c1ccc(Cl)cc1` [3a, 6-Amino-7-(4-chlorophenyl)-N,5-diphenyl-2-(phenylamino)pyrazolo[1,5-a]pyrimidine-3-carboxamide], the melting point was 248 to 249 °C. In addition, the IC50 in data set [1] (Table 1, compounds 3a-z) worked out at 37.8 ± 2.5 µM.
Consider `CCOC(=O)c1c(-c2ccccc2)nn2c(-c3ccc(Cl)cc3)c(N)c(-c3ccccc3)nc12` [3aa, Ethyl 6-amino-7-(4-chlorophenyl)-2,5-diphenylpyrazolo[1,5-a]pyrimidine-3-carboxylate], for which the melting point is 180 to 182 °C. Also, the IC50 in data set [1] (Table 2, compounds 3aa-ai) is 94 ± 3.6 µM.
`CCOC(=O)c1c(-c2ccccc2)nn2c(-c3ccc(Br)cc3)c(N)c(-c3ccccc3)nc12` [3ab, Ethyl 6-amino-7-(4-bromophenyl)-2,5-diphenylpyrazolo[1,5-a]pyrimidine-3-carboxylate] showed a melting point of 201 to 202 °C. For the same compound, the IC50 in data set [1] (Table 2, compounds 3aa-ai) was 150 ± 4 µM.
The compound `CCOC(=O)c1c(-c2ccccc2)nn2c(-c3ccc(Cl)cc3)c(N)c(-c3ccc(C)cc3)nc12` [3ac, Ethyl 6-amino-7-(4-chlorophenyl)-2-phenyl-5-p-tolylpyrazolo[1,5-a]pyrimidine-3-carboxylate] came in with a melting point of 221 to 223 °C. Also, the IC50 in data set [1] (Table 2, compounds 3aa-ai) was 185 ± 6 µM.
For `CCOC(=O)c1c(-c2ccccc2)nn2c(-c3ccc(Br)cc3)c(N)c(-c3ccc(C)cc3)nc12` [3ad, Ethyl 6-amino-7-(4-bromophenyl)-2-phenyl-5-p-tolylpyrazolo[1,5-a]pyrimidine-3-carboxylate], the melting point lay in the range of 230 to 232 °C. In addition, the IC50 in data set [1] (Table 2, compounds 3aa-ai) came out at 141 ± 7 µM.
Taken in the same sequence, the figures for `CCOC(=O)c1c(-c2ccccc2)nn2c(-c3ccccc3)c(N)c(-c3ccc(OC)cc3)nc12` [3ae, Ethyl 6-amino-5-(4-methoxyphenyl)-2,7-diphenylpyrazolo[1,5-a]pyrimidine-3-carboxylate] were 189 to 190 °C and 116 ± 1.8 µM.
The matching figures for `CCOC(=O)c1c(-c2ccccc2)nn2c(-c3ccccc3)c(N)c(-c3ccc(Cl)cc3)nc12` [3ag, Ethyl 6-amino-5-(4-chlorophenyl)-2,7-diphenylpyrazolo[1,5-a]pyrimidine-3-carboxylate]: 238 to 239 °C and 201 ± 4.2 µM.
The compound `CCOC(=O)c1c(-c2ccccc2)nn2c(-c3ccc(Cl)cc3)c(N)c(-c3ccc(Cl)cc3)nc12` [3ah, Ethyl 6-amino-5,7-bis(4-chlorophenyl)-2-phenylpyrazolo[1,5-a]pyrimidine-3-carboxylate] gave a melting point of 245 to 246 °C. In data set [1] (Table 2, compounds 3aa-ai), the IC50 amounted to 162 ± 3.2 µM.
As for `CCOC(=O)c1c(-c2ccccc2)nn2c(-c3cccs3)c(N)c(-c3ccc(Cl)cc3)nc12` [3ai, Ethyl 6-amino-5-(4-chlorophenyl)-2-phenyl-7-(thiophen-2-yl)pyrazolo[1,5-a]pyrimidine-3-carboxylate], the melting point was 192 to 193 °C. For the same compound, the 50% inhibitory concentration (IC50) in data set [1] (Table 2, compounds 3aa-ai) stood at 153 ± 5 µM.
On to `Nc1c(-c2ccccc2)nc2c(C(=O)Nc3ccccc3)c(Nc3ccccc3)nn2c1-c1ccc(Br)cc1` [3b, 6-Amino-7-(4-bromophenyl)-N,5-diphenyl-2-(phenylamino)pyrazolo[1,5-a]pyrimidine-3-carboxamide], for which the melting point lay within 235 to 237 °C. Also, the half-inhibitory concentration (IC50) in data set [1] (Table 1, compounds 3a-z) is 40 ± 2.9 µM.
`Cc1ccc(-c2nc3c(C(=O)Nc4ccccc4)c(Nc4ccccc4)nn3c(-c3ccc(Cl)cc3)c2N)cc1` [3c, 6-Amino-7-(4-chlorophenyl)-N-phenyl-2-(phenylamino)-5-p-tolylpyrazolo[1,5-a]pyrimidine-3-carboxamide] showed a melting point of 232 to 233 °C. Also, the IC50 in data set [1] (Table 1, compounds 3a-z) is 44.5 ± 3.1 µM.
On to `COc1ccc(-c2nc3c(C(=O)Nc4ccccc4)c(Nc4ccccc4)nn3c(-c3ccccc3)c2N)cc1` [3e, 6-Amino-5-(4-methoxyphenyl)-N,7-diphenyl-2-(phenylamino)pyrazolo[1,5-a]pyrimidine-3-carboxamide], for which the melting point fell in the range of 257 to 259 °C. Besides, in data set [1] (Table 1, compounds 3a-z), the half-inhibitory concentration (IC50) came out at 63.3 ± 4.4 µM.
Taken in the same sequence, the figures for `COc1ccc(-c2nc3c(C(=O)Nc4ccccc4)c(Nc4ccccc4)nn3c(-c3ccc(Cl)cc3)c2N)cc1` [3f, 6-Amino-7-(4-chlorophenyl)-5-(4-methoxyphenyl)-N-phenyl-2-(phenylamino)pyrazolo[1,5-a]pyrimidine-3-carboxamide] were 237 to 238 °C and 85.7 ± 5.3 µM.
Taken in the same sequence, the figures for `Nc1c(-c2ccc(Cl)cc2)nc2c(C(=O)Nc3ccccc3)c(Nc3ccccc3)nn2c1-c1ccccc1` [3g, 6-Amino-5-(4-chlorophenyl)-N,7-diphenyl-2-(phenylamino)pyrazolo[1,5-a]pyrimidine-3-carboxamide] were 285 to 286 °C and 75.6 ± 5 µM.
The compound `Nc1c(-c2ccc(Cl)cc2)nc2c(C(=O)Nc3ccccc3)c(Nc3ccccc3)nn2c1-c1ccc(Cl)cc1` [3h, 6-Amino-5,7-bis(4-chlorophenyl)-N-phenyl-2-(phenylamino)pyrazolo[1,5-a]pyrimidine-3-carboxamide] yielded a melting point of 281 to 283 °C. In addition, in data set [1] (Table 1, compounds 3a-z), the IC50 is 25.7 ± 1.1 µM.
The matching figures for `Nc1c(-c2ccc(Cl)cc2)nc2c(C(=O)Nc3ccccc3)c(Nc3ccccc3)nn2c1-c1cccs1` [3i, 6-Amino-5-(4-chlorophenyl)-N-phenyl-2-(phenylamino)-7-(thiophen-2-yl)pyrazolo[1,5-a]pyrimidine-3-carboxamide]: 270 to 271 °C and 28.1 ± 1.2 µM.
Consider `COc1ccc(NC(=O)c2c(Nc3ccccc3)nn3c(-c4ccc(Cl)cc4)c(N)c(-c4ccccc4)nc23)cc1` [3j, 6-Amino-7-(4-chlorophenyl)-N-(4-methoxyphenyl)-5-phenyl-2-(phenylamino)pyrazolo[1,5-a]pyrimidine-3-carboxamide], for which the melting point lay within 217 to 218 °C. Besides, the IC50 in data set [1] (Table 1, compounds 3a-z) turned out to be 30.3 ± 2.1 µM.
Taken in the same sequence, the figures for `COc1ccc(NC(=O)c2c(Nc3ccccc3)nn3c(-c4ccc(Br)cc4)c(N)c(-c4ccccc4)nc23)cc1` [3k, 6-Amino-7-(4-bromophenyl)-N-(4-methoxyphenyl)-5-phenyl-2-(phenylamino)pyrazolo[1,5-a]pyrimidine-3-carboxamide] were 256 to 258 °C and 57.4 ± 3.8 µM.
For the compound `COc1ccc(NC(=O)c2c(Nc3ccccc3)nn3c(-c4ccc(Cl)cc4)c(N)c(-c4ccc(C)cc4)nc23)cc1` [3l, 6-Amino-7-(4-chlorophenyl)-N-(4-methoxyphenyl)-2-(phenylamino)-5-p-tolylpyrazolo[1,5-a]pyrimidine-3-carboxamide], the melting point lay in the range of 263 to 265 °C. Besides, the 50% inhibitory concentration (IC50) in data set [1] (Table 1, compounds 3a-z) was found to be 49.3 ± 3.3 µM.
The matching figures for `COc1ccc(NC(=O)c2c(Nc3ccccc3)nn3c(-c4ccccc4)c(N)c(-c4ccc(OC)cc4)nc23)cc1` [3n, 6-Amino-N,5-bis(4-methoxyphenyl)-7-phenyl-2-(phenylamino)pyrazolo[1,5-a]pyrimidine-3-carboxamide]: 248 to 250 °C and 42.6 ± 1.1 µM.
`COc1ccc(NC(=O)c2c(Nc3ccccc3)nn3c(-c4ccc(Cl)cc4)c(N)c(-c4ccc(OC)cc4)nc23)cc1` [3o, 6-Amino-7-(4-chlorophenyl)-N,5-bis(4-methoxyphenyl)-2-(phenylamino)pyrazolo[1,5-a]pyrimidine-3-carboxamide]: the melting point lay within 268 to 269 °C. In data set [1] (Table 1, compounds 3a-z), the IC50 was 56.2 ± 3.2 µM.
For the compound `COc1ccc(NC(=O)c2c(Nc3ccccc3)nn3c(-c4ccccc4)c(N)c(-c4ccc(Cl)cc4)nc23)cc1` [3p, 6-Amino-5-(4-chlorophenyl)-N-(4-methoxyphenyl)-7-phenyl-2-(phenylamino)pyrazolo[1,5-a]pyrimidine-3-carboxamide], the melting point was in the range of 245 to 246 °C. In addition, in data set [1] (Table 1, compounds 3a-z), the IC50 came out at 33.2 ± 2.1 µM.
Taken in the same sequence, the figures for `COc1ccc(NC(=O)c2c(Nc3ccccc3)nn3c(-c4ccc(Cl)cc4)c(N)c(-c4ccc(Cl)cc4)nc23)cc1` [3q, 6-Amino-5,7-bis(4-chlorophenyl)-N-(4-methoxyphenyl)-2-(phenylamino)pyrazolo[1,5-a]pyrimidine-3-carboxamide] were 245 to 246 °C and 36.5 ± 2.5 µM.
Regarding `COc1ccc(NC(=O)c2c(Nc3ccccc3)nn3c(-c4cccs4)c(N)c(-c4ccc(Cl)cc4)nc23)cc1` [3r, 6-Amino-5-(4-chlorophenyl)-N-(4-methoxyphenyl)-2-(phenylamino)-7-(thiophen-2-yl)pyrazolo[1,5-a]pyrimidine-3-carboxamide], the melting point was 240 to 242 °C. Moreover, the IC50 in data set [1] (Table 1, compounds 3a-z) was found to be 18.4 ± 0.6 µM.
The matching figures for `Nc1c(-c2ccccc2)nc2c(C(=O)Nc3ccc(Cl)cc3)c(Nc3ccccc3)nn2c1-c1ccc(Cl)cc1` [3s, 6-Amino-N,7-bis(4-chlorophenyl)-5-phenyl-2-(phenylamino)pyrazolo[1,5-a]pyrimidine-3-carboxamide]: 274 to 275 °C and 42.3 ± 3.1 µM.
As to `Nc1c(-c2ccccc2)nc2c(C(=O)Nc3ccc(Cl)cc3)c(Nc3ccccc3)nn2c1-c1ccc(Br)cc1` [3t, 6-Amino-7-(4-bromophenyl)-N-(4-chlorophenyl)-5-phenyl-2-(phenylamino)pyrazolo[1,5-a]pyrimidine-3-carboxamide], the melting point fell in the range of 294 to 296 °C. Besides, the IC50 in data set [1] (Table 1, compounds 3a-z) came to 60 ± 4 µM.
With `Cc1ccc(-c2nc3c(C(=O)Nc4ccc(Cl)cc4)c(Nc4ccccc4)nn3c(-c3ccc(Cl)cc3)c2N)cc1` [3u, 6-Amino-N,7-bis(4-chlorophenyl)-2-(phenylamino)-5-p-tolylpyrazolo[1,5-a]pyrimidine-3-carboxamide], the melting point lay within 281 to 282 °C. In data set [1] (Table 1, compounds 3a-z), the half-maximal inhibitory concentration (IC50) stood at 55.6 ± 3.6 µM.
